From US4731451A, “N-((2-oxo-3(2H)benzothiazolyl)methyl)-2-chloroacetanilides” (Monsanto Company, priority 1980, dated 1988)

Assays:
Assay type in all cases: in vivo
Velvetleaf = assay: Pre-emergent herbicidal activity (Table II); conditions: 2-3 weeks; also: ranges in brackets are in %
How it was run: (§1)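 Percent injury, converted to a fixed-scale rating, is recorded roughly 2-3 weeks after seeding and treatment. The active ingredient is blended into the cover-layer soil laid over seeded pans, which then sit in a greenhouse with bottom watering as needed.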

Johnsongrass = assay: Pre-emergent herbicidal activity (Table II); conditions: 2-3 weeks; also: ranges in brackets are in %
How it was run: as §1

Cocklebur = assay: Pre-emergent herbicidal activity (Table II); conditions: 2-3 weeks; also: ranges in brackets are in %
How it was run: as §1

Canada Thistle = assay: Pre-emergent herbicidal activity (Table II); conditions: 2-3 weeks; also: ranges in brackets are in %
How it was run: as §1

Quackgrass = assay: Pre-emergent herbicidal activity (Table II); conditions: 2-3 weeks; also: ranges in brackets are in %
How it was run: as §1

Lambsquarters = assay: Pre-emergent herbicidal activity (Table II); conditions: 2-3 weeks; also: ranges in brackets are in %
How it was run: as §1

Yellow Nutsedge = assay: Pre-emergent herbicidal activity (Table II); conditions: 2-3 weeks; also: ranges in brackets are in %
How it was run: as §1

Sagittaria trifolia = assay: Percent inhibition of rice weeds in transplanted rice (Table VI); conditions: 432 h, 18 days after treatment
Excerpt: (§2) In Table VI, data is presented showing the effect of said compound on the major Asian rice weeds Echinochloa crusgalli (EC), Monochoria vaginalis (MV), Cyperus serotinus (CS), Eleocharis kuroguwai (EK) and Sagittaria trifolia (ST) in transplanted rice at rates within the range of 0.25-2.0 lb/A (0.28-2.24 kg/ha); observations were made 18 days after treatment.

Monochoria vaginalis = assay: as above; conditions: Pontederia vaginalis, 432 h, 18 days after treatment
Excerpt: as §2

Cyperus serotinus = assay: as above; conditions: 432 h, 18 days after treatment
Excerpt: as §2

Eleocharis kuroguwai = assay: as above; conditions: 432 h, 18 days after treatment
Excerpt: as §2

Echinochloa crusgalli = assay: as above; conditions: Echinochloa crus-galli, 432 h, 18 days after treatment
Excerpt: as §2

CC1=C(N(Cn2c(=O)sc3ccccc32)C(=O)CCl)C(C)CCC1 (stereo not shown) [Example 1, N-(2,6-dimethyl-1-cyclohexen-1-yl)-N-[(2-oxo-3(2H)-benzothiazolyl)methyl]-2-chloroacetamide]
0 (0-24): Herbicidal rating (Velvetleaf; 5.6 kg/ha) | Herbicidal rating (Velvetleaf; 11.0 kg/ha) | Herbicidal rating (Johnsongrass; 5.6 kg/ha) | Herbicidal rating (Cocklebur; 11.0 kg/ha) | Herbicidal rating (Canada Thistle; 5.6 kg/ha) | Herbicidal rating (Canada Thistle; 11.0 kg/ha) | Herbicidal rating (Lambsquarters; 11.0 kg/ha) | Herbicidal rating (Yellow Nutsedge; 5.6 kg/ha)
3 (75-100): Herbicidal rating (Johnsongrass; 11.0 kg/ha)
5%: inhibition at 560 g/ha (Sagittaria trifolia; 0.56 kg/ha) | inhibition at 1120 g/ha (Sagittaria trifolia; 1.12 kg/ha) | inhibition at 2240 g/ha (Sagittaria trifolia; 2.24 kg/ha)
90%: inhibition at 560 g/ha (Cyperus serotinus; 0.56 kg/ha)
0%: inhibition at 280 g/ha (Sagittaria trifolia; 0.28 kg/ha)
100%: inhibition at 280 g/ha (Monochoria vaginalis; 0.28 kg/ha) | inhibition at 560 g/ha (Monochoria vaginalis; 0.56 kg/ha) | inhibition at 1120 g/ha (Monochoria vaginalis; 1.12 kg/ha) | inhibition at 2240 g/ha (Monochoria vaginalis; 2.24 kg/ha) | inhibition at 1120 g/ha (Cyperus serotinus; 1.12 kg/ha) | inhibition at 2240 g/ha (Cyperus serotinus; 2.24 kg/ha) | inhibition at 280 g/ha (Eleocharis kuroguwai; 0.28 kg/ha) | inhibition at 560 g/ha (Eleocharis kuroguwai; 0.56 kg/ha) | inhibition at 1120 g/ha (Eleocharis kuroguwai; 1.12 kg/ha) | inhibition at 2240 g/ha (Eleocharis kuroguwai; 2.24 kg/ha) | inhibition at 280 g/ha (Echinochloa crusgalli; 0.28 kg/ha) | inhibition at 560 g/ha (Echinochloa crusgalli; 0.56 kg/ha) | inhibition at 1120 g/ha (Echinochloa crusgalli; 1.12 kg/ha) | inhibition at 2240 g/ha (Echinochloa crusgalli; 2.24 kg/ha)
2 (50-74): Herbicidal rating (Quackgrass; 5.6 kg/ha) | Herbicidal rating (Quackgrass; 11.0 kg/ha) | Herbicidal rating (Yellow Nutsedge; 11.0 kg/ha)
1 (25-49): Herbicidal rating (Cocklebur; 5.6 kg/ha) | Herbicidal rating (Lambsquarters; 5.6 kg/ha)
80%: inhibition at 280 g/ha (Cyperus serotinus; 0.28 kg/ha)
